Data published in patent US5364879A, “Medical uses of trioxolane and diperoxide compounds” (Cliveden Ltd., priority 1994, dated 1994).
≈ marks a conversion by molar mass, not a printed value. Where two headings read alike, the source gives them in different places.

Experiments:
Leishmania major = test: Treatment of mice infected with Leishmania major; assay type: in vivo, Leishmania major (balb/c mice)
[1] = set-up: species or system New Zealand White rabbits; conditions: rabbit, in vivo
in vivo = conditions: mouse
[2] = set-up: species or system New Zealand White rabbits; conditions: rabbit, in vivo; remark: listed apart in the source
[3] = mouse, in vivo, ip
human spermatozoa = test: Effect on spermatozoa; assay type: cell-based
[4] = system: Myeloma cell line (x63 balb/c line); test: Effect on myeloma cell line; assay type: cell-based
EPEC/ETEC [5] = test: MIC in broth; assay type: cell-based, Enteropathogenic/enterotoxigenic Escherichia coli; conditions: Escherichia coli, N = 5
E. coli = test: microbe, parasite or virus in culture; assay type: cell-based; conditions: Escherichia coli
S. aureus [6] = test: microbe, parasite or virus in culture; assay type: cell-based; conditions: Staphylococcus aureus, read-out: lowest concentration inhibiting at least one isolate
Penicillium = test: MIC by agar diffusion method; assay type: cell-based, Penicillium spp.; conditions: N = 1
Archromobacter = test: MIC by agar diffusion method; assay type: cell-based; conditions: Achromobacter, N = 1
Cryptococcus = test: MIC by agar diffusion method; assay type: cell-based, Cryptoccus spp.; conditions: N = 1
Salmonella = test: microbe, parasite or virus in culture; assay type: cell-based, Salmonella spp.
[7] = system: microorganisms which cause common infections; assay type: cell-based
Shigella = test: microbe, parasite or virus in culture; assay type: cell-based, Shigella spp.
EPEC/ETEC [8] = test: MIC in agar dilution; assay type: cell-based, Enteropathogenic/enterotoxigenic Escherichia coli; conditions: Escherichia coli, N = 5
Pseudomonas = test: microbe, parasite or virus in culture; assay type: cell-based, Pseudomonas spp.
N. gonorrhoea = test: MIC by agar diffusion method; assay type: cell-based, Neisseria gonorrhoea; conditions: Neisseria
Klebisella = test: microbe, parasite or virus in culture; assay type: cell-based, Klebsiella spp.; conditions: Klebsiella
Ph. verrucose = test: microbe, parasite or virus in culture; assay type: cell-based, Phialophora verrucose; conditions: Phialophora
Candida [9] = test: microbe, parasite or virus in culture; assay type: cell-based, Candida spp.
C. albicans = test: MIC by agar diffusion method; assay type: cell-based; conditions: Candida albicans, N = 5
S. aureus [10] = test: microbe, parasite or virus in culture; assay type: cell-based; conditions: Staphylococcus aureus
Tri. violaceum = test: microbe, parasite or virus in culture; assay type: cell-based, Trichophyton violaceurn; conditions: Trichophyton violaceum
Candida [11] = test: MIC in agar dilution; assay type: cell-based, Candida spp.; conditions: N = 2
Tri. canis = test: microbe, parasite or virus in culture; assay type: cell-based, Trichophyton canis; conditions: Trichophyton
lymphocytes = test: Immunomodulatory activity, bone marrow examination; assay type: in vivo; conditions: Balb/c mice
S. epidermidis = test: MIC by agar diffusion method; assay type: cell-based; conditions: Staphylococcus epidermidis
Candida [12] = test: MIC in broth; assay type: cell-based, Candida spp.; conditions: N = 2
Leishmania donova = system: Leishmania donova; set-up: species or system Leishmania donova (Balb/c mice); conditions: mouse, in vivo

O.O.O.O.O.O.O.O.O.O=C([O-])[C@@H]1[O][Sb](=[O])([O][Sb]2(=[O])[O][C@H]([C@H](O)CO)[C@H](O)[C@H](C(=O)[O-])[O]2)[O][C@H]([C@H](O)CO)[C@@H]1O.[Na+].[Na+].[Na+] (some centres unmarked) [Pentostam, reference compound]
lesions, Day 14 (Leishmania major; mouse, in vivo, ip): Large lesions
number dead, Day 14 (Leishmania major; mouse, in vivo, ip): 1
palate involvement, Day 14 (Leishmania major; mouse, in vivo, ip): involvement

CC1(C)OOC(CCC(C)(O)C2OCOO2)O1 (centres unmarked) [linalool trioxolane]
Primary Irritation Index (PII) [1]: 1.0
LD50 (in vivo): ~3000 mg/kg
ocular irritation [2]: non-irritant

CCC1OOC(CCO)O1 (stereo not drawn) [trioxolane derivative of cis 3-hexene-1-ol]
minimum lethal dose [3]: 3 g/kg
tolerability in studies on LD50 [3]: highly tolerated
time within which human spermatozoa were killed (human spermatozoa): ≤ 1 min
time within which myeloma cell line was killed [4]: ≤ 48 h
MIC (EPEC/ETEC [5]): 620 µg/mL (≈ 4180 µM)
MIC (E. coli): 120 µg/mL (≈ 810 µM)
MIC (S. aureus [6]): 31 µg/mL (≈ 209 µM)
MIC (Penicillium): 310 µg/mL (≈ 2090 µM)
MIC (Archromobacter): 60 µg/mL (≈ 405 µM)
MIC (Cryptococcus): 15 µg/mL (≈ 101 µM)
MBC (Salmonella): 2500 µg/mL (≈ 16900 µM)
activity compared with Geraniol trioxolane [7]: more active than Geraniol trioxolane
activity compared with conventional drugs [7]: more active than conventional drugs
direct bioactivity, agar vs broth [7]: better in agar than in broth methods
effect of water on direct bioactivity [7]: significantly reduces
relationship with resistance and sensitivity to conventional antibiotics [7]: no relationship
sensitivity of all the microorganisms tested [7]: uniformly sensitive
MBC (Shigella): 1250 µg/mL (≈ 8440 µM)
MIC (EPEC/ETEC [8]): 31 µg/mL (≈ 209 µM)
MBC (Pseudomonas): 1250 µg/mL (≈ 8440 µM)
MIC (N. gonorrhoea; N = 49, number in parentheses, read-out: lowest concentration inhibiting at least one isolate): 1.9 µg/mL (≈ 12.8 µM)
MIC (N. gonorrhoea; N = 49, read-out: MIC): 3.5 µg/mL (≈ 23.6 µM)
MIC (Klebisella): 7 µg/mL (≈ 47.2 µM)
MIC (Ph. verrucose): 150 µg/mL (≈ 1010 µM)
MBC (Candida [9]): 1250 µg/mL (≈ 8440 µM)
MIC (C. albicans): 31 µg/mL (≈ 209 µM)
MBC (S. aureus [10]): 1250 µg/mL (≈ 8440 µM)
MIC (Tri. violaceum): 150 µg/mL (≈ 1010 µM)
MIC (Candida [11]): 31 µg/mL (≈ 209 µM)
MIC (Tri. canis): 150 µg/mL (≈ 1010 µM)
new clones of lymphocytes in bone marrow vs mice without any drug (lymphocytes): increase in new clones of lymphocytes
MIC (S. epidermidis; read-out: lowest concentration inhibiting at least one isolate): 31 µg/mL (≈ 209 µM)
MIC (S. epidermidis; agar diffusion, N = 14, read-out: MIC): 25 µg/mL (≈ 169 µM)
MIC (Candida [12]): 310 µg/mL (≈ 2090 µM)
lesions, Day 0 (Leishmania major; IP, n = 15/group): Large lesions
lesions, Day 14 (Leishmania major; IP, n = 15/group): Lesions scabbed
number dead, Day 14 (Leishmania major; IP, n = 15/group): 2
number with palate involvement, Day 14 (Leishmania major; IP, n = 15/group): 2
general condition, Day 14 (Leishmania major; topical, n = 15/group): Animals healthy and
lesions, Day 0 (Leishmania major; topical, n = 15/group): Large lesions
clearing parasites from the viscera compared with Pentostam (Leishmania donova): perform better than Pentostam
